Consider 7 compounds from article PMC7111291 (European Journal of Medicinal Chemistry, 2020).

Read-outs that look alike come from different tables or passages of the source.

Data set [1] concerns wild type HIV-1 (VSVG/HIV-1wt). Description: microbe, parasite or virus in culture. It is filed as cell-based. The note with it: for EC50: read-out: EC50±SD.
The subject of data set [2] is HEK 293T cells. It is filed as cell-based, human. The following applies: read-out: CC50±SD, 48 h.
Data set [3] has as its system VSVG/HIV-1RT-Y188L. In kind it is cell-based. The note with it: for EC50: read-out: EC50±SD.
Data set [4] has as its target HIV-1 RT Ribonuclease H (Human immunodeficiency virus type 1 group M subtype B, UniProt P04585). In words: Ribonuclease H activity detection. It is filed as biochemical.
Data set [5] relates to VSVG/HIV-1RT-K103N. It is filed as cell-based.
For data set [6], the system named is VSVG/HIV-1RT-K103N,V108I. It is filed as cell-based.
In data set [7] the test system is VSVG/HIV-1RT-K103N,G190A. It is filed as cell-based.
The subject of data set [8] is VSVG/HIV-1RT-Y181C. In kind it is cell-based.
Setting [9] is: Human immunodeficiency virus 1, HEK-293T.

For the compound `CCCOn1cc(C(=O)C(=O)Nc2ccncc2Cl)c2ccccc21` [Compound 14, N-(3-Chloropyridin-4-yl)-2-oxo-2-(1-propoxy-1H-indol-3-yl)acetamide], in data set [1], the “infectivity when treated with the compound (percentage in parentheses)” value is on record as >10; (131.6 ± 0.60%) and the EC50 is over 10000 nM. For the same compound, the CC50 in data set [2] was determined as 20900 ± 5110 nM.
For `CCCOn1cc(C(O)C(=O)Nc2ccncc2Cl)c2ccccc21` (stereo not shown) [Compound 15, N-(3-Chloropyridin-4-yl)-2-hydroxy-2-(1-propoxy-1H-indol-3-yl)acetamide], the EC50 in data set [1] came to 2010 ± 60 nM. Besides, the CC50 in data set [2] came to 19000 ± 2310 nM.
Turning to `CCCOn1cc(CC(=O)Nc2ccccc2Cl)c2ccccc21` [Compound 6d, N-(2-Chlorophenyl)-2-(1-propoxy-1H-indol-3-yl)acetamide], the results for the EC50 in data set [1] and in data set [3] were 490 nM and over 10000 nM, respectively. For the same compound, in data set [4], the 50% inhibitory concentration (IC50) is over 100000 nM.
For `CCCOn1cc(CC(=O)Nc2ccncc2Cl)c2ccccc21` [Compound 10f, N-(3-Chloropyridin-4-yl)-2-(1-propoxy-1H-indol-3-yl)acetamide], the EC50 in data set [1] was determined as 70 nM. Further, the IC50 in data set [4] is over 100000 nM.
As for `CCCCOn1cc(CC(=O)Nc2ccncc2Cl)c2ccccc21` [Compound 10i, 2-(1-Butoxy-1H-indol-3-yl)-N-(3-chloropyridin-4-yl)acetamide], in data set [1] (setting [9]), the EC50 is 60 ± 0.5 nM. The same compound gave an IC50 in data set [4] of over 100000 nM.
In the case of `O=C1Nc2ccc(Cl)cc2[C@@](C#CC2CC2)(C(F)(F)F)O1` [EFV, efavirenz], the values for the EC50 in data set [1] (setting [9]) and in data set [1] were 0.7 ± 0.2 nM and 1 nM, respectively. Further, the “Mean change (fold) in EC50 compared to wild type” value in data set [3] is 0.12 ± 0.03 (124.3) fold; in data set [5], 0.03 ± 0.003 (27.0) fold; in data set [6], 0.06 ± 0.01 (55.5) fold; in data set [7] it was 0.18 ± 0.01 (183.0) fold; in data set [8] it was 0.002 ± 0.0001 (1.7) fold.
As to `Cc1ccnc2c1NC(=O)c1cccnc1N2C1CC1` [NVP, nevirapine, reference compound], the EC50 in data set [1] (setting [9]) is 30 ± 3 nM; in data set [1] it was 20 nM; in data set [3] it was over 100000 nM.

For orientation: EC50 means the concentration that produces a half-maximal response. Usually CC50 stands for the concentration giving 50% cytotoxicity. As a reminder, the IC50 is the midpoint of a concentration-inhibition curve. Higher therefore signals weaker potency in that assay.
